ChEMBL document CHEMBL4828766 (J Med Chem, 2021)
Square brackets hold non-standard residues; d marks the D form. Peptide text beside a SMILES is read from it. dPhe(4-I) = N[C@H](Cc1ccc(I)cc1)C(=O)O; 2Nal = N[C@@H](Cc1ccc2ccccc2c1)C(=O)O; d2Nal = N[C@H](Cc1ccc2ccccc2c1)C(=O)O

How the values were obtained:
Assay type in all cases: functional, cell-based
[1] = molecular target: T1, Melanocortin receptor 4 (Mus musculus, UniProt P56450); assay: Antagonist activity at mouse melanocortin receptor 4 expressed in HEK293 cells assessed as inhibition of NDP-MSH-induced cAMP accumulation incubated for 2 hrs by cAMP Alpha-screen assay based Schild analysis; conditions: for Kb: read-out: pA2 (converted)
T1 sequence (P56450 whole entry): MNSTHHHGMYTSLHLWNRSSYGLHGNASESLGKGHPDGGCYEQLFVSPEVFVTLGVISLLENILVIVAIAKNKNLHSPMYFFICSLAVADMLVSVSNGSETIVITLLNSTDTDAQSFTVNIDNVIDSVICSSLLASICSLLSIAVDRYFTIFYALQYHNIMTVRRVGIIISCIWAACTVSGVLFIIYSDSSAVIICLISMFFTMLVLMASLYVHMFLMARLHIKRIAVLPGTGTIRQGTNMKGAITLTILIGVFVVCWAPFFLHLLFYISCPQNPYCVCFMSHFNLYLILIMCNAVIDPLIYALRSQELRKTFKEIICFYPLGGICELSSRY

[2] = molecular target: T2, Melanocortin receptor 3 (Mus musculus, UniProt P33033); assay: Antagonist activity at mouse melanocortin receptor 3 expressed in HEK293 cells assessed as inhibition of NDP-MSH-induced cAMP accumulation incubated for 2 hrs by cAMP Alpha-screen assay based Schild analysis; conditions: for Kb: read-out: pA2 (converted)
T2 sequence (P33033 whole entry): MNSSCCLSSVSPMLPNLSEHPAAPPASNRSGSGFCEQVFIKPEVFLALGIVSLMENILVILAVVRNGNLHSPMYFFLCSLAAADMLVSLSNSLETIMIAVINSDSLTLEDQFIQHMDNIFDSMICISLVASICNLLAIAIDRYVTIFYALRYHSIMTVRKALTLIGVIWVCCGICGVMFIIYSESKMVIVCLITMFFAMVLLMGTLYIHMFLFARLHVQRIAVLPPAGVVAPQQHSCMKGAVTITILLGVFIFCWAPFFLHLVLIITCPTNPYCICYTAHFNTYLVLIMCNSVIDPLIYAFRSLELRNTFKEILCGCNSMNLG

[3] = molecular target: T2, Melanocortin receptor 3; assay: Agonist activity at mouse MC3R expressed in HEK293 cells assessed as induction of cAMP level incubated for 2 hr by alphaScreen assay
[4] = molecular target: T1, Melanocortin receptor 4; assay: Agonist activity at mouse MC4R expressed in HEK293 cells assessed as induction of cAMP level incubated for 2 hr by alphaScreen assay
[5] = molecular target: Melanocortin receptor 5 (Mus musculus, UniProt P41149); assay: Agonist activity at mouse MC5R expressed in HEK293 cells assessed as induction of cAMP level at 100 uM incubated for 2 hr by alphaScreen assay
Chain of Melanocortin receptor 5 (P41149 whole entry): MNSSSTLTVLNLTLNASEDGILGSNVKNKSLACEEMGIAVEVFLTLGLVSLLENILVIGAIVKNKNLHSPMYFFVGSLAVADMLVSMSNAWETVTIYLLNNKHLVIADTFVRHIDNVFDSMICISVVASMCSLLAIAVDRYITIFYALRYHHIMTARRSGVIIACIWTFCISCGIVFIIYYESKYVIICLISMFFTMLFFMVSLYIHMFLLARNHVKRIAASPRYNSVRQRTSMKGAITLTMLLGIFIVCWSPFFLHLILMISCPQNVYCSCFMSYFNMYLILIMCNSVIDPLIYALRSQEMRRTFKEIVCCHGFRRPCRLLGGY

[6] = molecular target: Melanocyte-stimulating hormone receptor (Mus musculus, UniProt Q01727); assay: Agonist activity at mouse MC1R expressed in HEK293 cells assessed as induction of cAMP level at 100 uM incubated for 2 hr by alphaScreen assay
Chain of Melanocyte-stimulating hormone receptor (Q01727 whole entry): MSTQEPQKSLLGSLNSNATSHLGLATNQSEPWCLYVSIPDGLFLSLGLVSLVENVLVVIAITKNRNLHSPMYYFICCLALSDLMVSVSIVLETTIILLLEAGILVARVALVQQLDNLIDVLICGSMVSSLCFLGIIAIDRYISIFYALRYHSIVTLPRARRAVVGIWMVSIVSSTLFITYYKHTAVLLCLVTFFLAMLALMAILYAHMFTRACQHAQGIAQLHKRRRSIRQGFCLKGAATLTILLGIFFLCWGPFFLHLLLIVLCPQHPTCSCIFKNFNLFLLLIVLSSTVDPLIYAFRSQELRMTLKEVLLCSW

[7] = molecular target: Melanocortin receptor 4 (Mus musculus) (UniProt P56450); assay: Agonist activity at mouse MC4R expressed in HEK293 cells assessed as induction of cAMP level at 100 uM incubated for 2 hr by alphaScreen assay relative to control
Chain of Melanocortin receptor 4 (Mus musculus) (P56450 whole entry): as the sequence (P56450 whole entry) above

[8] = molecular target: Melanocyte-stimulating hormone receptor (Mus musculus) (UniProt Q01727); assay: Agonist activity at mouse MC1R expressed in HEK293 cells assessed as induction of cAMP level at 100 uM incubated for 2 hr by alphaScreen assay relative to NDP-MSH
Chain of Melanocyte-stimulating hormone receptor (Mus musculus) (Q01727 whole entry, looked up): as the sequence (Q01727 whole entry) above

SMILES: CC(=O)N[C@H](Cc1ccc2ccccc2c1)C(=O)N[C@@H](CCCNC(=N)N)C(=O)N[C@H](Cc1ccc(I)cc1)C(=O)N[C@H](CCCCN)C(N)=O
- Kb [1]: 0.00316 µM
- Kb [2]: 0.126 µM
- EC50 [3]: > 100 µM
- EC50 [4]: > 100 µM
- EC50 [5]: > 100 µM
- EC50 [6]: 0.22 µM

SMILES: CC(=O)N[C@H](Cc1ccc(I)cc1)C(=O)N[C@H](Cc1ccc2ccccc2c1)C(=O)N[C@@H](Cc1c[nH]c2ccccc12)C(=O)N[C@@H](CCCNC(=N)N)C(N)=O
- Ki [1]: 2.5 µM
- Kb [1]: 2.51 µM
- Kb [2]: > 3.16 µM
- EC50 [3]: > 100 µM
- EC50 [4]: > 100 µM
- EC50 [5]: > 100 µM
- EC50 [6]: > 100 µM

SMILES: CC(=O)N[C@H](Cc1ccc(I)cc1)C(=O)N[C@H](Cc1ccc2ccccc2c1)C(=O)N[C@H](Cc1ccc(I)cc1)C(=O)N[C@H](CCCCN)C(N)=O
- Kb [1]: > 3.16 µM
- Kb [2]: > 3.16 µM
- EC50 [3]: > 100 µM
- EC50 [4]: > 100 µM
- EC50 [5]: > 100 µM
- EC50 [6]: > 100 µM

SMILES: CC(=O)N[C@H](Cc1ccc2ccccc2c1)C(=O)N[C@@H](CCCNC(=N)N)C(=O)N[C@@H](Cc1c[nH]c2ccccc12)C(=O)N[C@@H](CCCNC(=N)N)C(N)=O (Ac-[d2Nal]RWR-NH2)
- Kb [1]: 0.00501 µM
- Kb [2]: 0.158 µM
- EC50 [3]: > 100 µM
- EC50 [5]: > 100 µM
- Activity [7]: 20%

SMILES: CC(=O)N[C@H](Cc1ccc2ccccc2c1)C(=O)N[C@@H](CCCNC(=N)N)C(=O)N[C@@H](Cc1c[nH]c2ccccc12)C(=O)N[C@H](CCCCN)C(N)=O (Ac-[d2Nal]RW[dK]-NH2)
- Kb [1]: 0.02 µM
- Kb [2]: 3.16 µM
- EC50 [3]: > 100 µM
- EC50 [4]: > 100 µM
- EC50 [5]: > 100 µM
- EC50 [6]: > 100 µM

SMILES: CC(=O)N[C@H](Cc1ccc2ccccc2c1)C(=O)N[C@@H](CCCNC(=N)N)C(=O)N[C@H](Cc1ccc(I)cc1)C(=O)N[C@@H](CCCNC(=N)N)C(N)=O (Ac-[d2Nal]R[dPhe(4-I)]R-NH2)
- Kb [1]: 0.00251 µM
- Kb [2]: 0.0794 µM
- EC50 [3]: > 100 µM
- EC50 [4]: > 100 µM
- EC50 [5]: > 100 µM
- EC50 [6]: 0.04 µM

SMILES: CC(=O)N[C@H](Cc1ccc2ccccc2c1)C(=O)N[C@H](Cc1ccc2ccccc2c1)C(=O)N[C@@H](Cc1c[nH]c2ccccc12)C(=O)N[C@H](CCCCN)C(N)=O (Ac-[d2Nal][d2Nal]W[dK]-NH2)
- Kb [1]: 0.2 µM
- Kb [2]: 1.58 µM
- EC50 [3]: > 100 µM
- Activity [8]: 25%
- EC50 [5]: > 100 µM
- Activity [7]: 30%

SMILES: CC(=O)N[C@H](Cc1ccc2ccccc2c1)C(=O)N[C@H](Cc1ccc2ccccc2c1)C(=O)N[C@@H](Cc1ccc2ccccc2c1)C(=O)N[C@H](CCCCN)C(N)=O (Ac-[d2Nal][d2Nal][2Nal][dK]-NH2)
- Kb [1]: > 3.16 µM
- Kb [2]: > 3.16 µM
- EC50 [3]: > 100 µM
- EC50 [4]: > 100 µM
- Activity ([8]; filed as agonist): 45%
- EC50 [5]: > 100 µM

SMILES: CC(=O)N[C@H](Cc1ccc2ccccc2c1)C(=O)N[C@H](Cc1ccc2ccccc2c1)C(=O)N[C@H](Cc1ccc2ccccc2c1)C(=O)N[C@H](CCCCN)C(N)=O (Ac-[d2Nal][d2Nal][d2Nal][dK]-NH2)
- Kb [1]: > 3.16 µM
- Kb [2]: > 3.16 µM
- EC50 [3]: > 100 µM
- EC50 [4]: > 100 µM
- Activity ([8]; filed as agonist): 55%
- EC50 [5]: > 100 µM

SMILES: CC(=O)N[C@H](Cc1ccc2ccccc2c1)C(=O)N[C@H](Cc1ccc2ccccc2c1)C(=O)N[C@H](Cc1ccc(I)cc1)C(=O)N[C@@H](CCCNC(=N)N)C(N)=O (Ac-[d2Nal][d2Nal][dPhe(4-I)]R-NH2)
- Kb [1]: > 3.16 µM
- Kb [2]: > 3.16 µM
- EC50 [3]: > 100 µM
- EC50 [4]: > 100 µM
- Activity [8]: 25%

SMILES: CC(=O)N[C@H](Cc1ccc2ccccc2c1)C(=O)N[C@H](Cc1ccc2ccccc2c1)C(=O)N[C@H](Cc1ccc(I)cc1)C(=O)N[C@H](CCCCN)C(N)=O (Ac-[d2Nal][d2Nal][dPhe(4-I)][dK]-NH2)
- Kb [1]: > 3.16 µM
- Kb [2]: > 3.16 µM
- EC50 [3]: > 100 µM
- EC50 [4]: > 100 µM
- Activity [8]: 20%
- EC50 [5]: > 100 µM

SMILES: CC(=O)N[C@H](Cc1ccc(I)cc1)C(=O)N[C@@H](CCCNC(=N)N)C(=O)N[C@@H](Cc1c[nH]c2ccccc12)C(=O)N[C@H](CCCCN)C(N)=O (Ac-[dPhe(4-I)]RW[dK]-NH2)
- Ki [1]: 0.025 µM
- Kb [1]: 0.0251 µM
- Ki [2]: 0.63 µM
- Kb [2]: 0.631 µM
- EC50 [3]: > 100 µM
- EC50 [4]: > 100 µM
- EC50 [5]: > 100 µM
- EC50 [6]: > 100 µM

SMILES: CC(=O)N[C@H](Cc1ccc(I)cc1)C(=O)N[C@@H](CCCNC(=N)N)C(=O)N[C@@H](Cc1ccc2ccccc2c1)C(=O)N[C@H](Cc1ccc2ccccc2c1)C(N)=O (Ac-[dPhe(4-I)]R[2Nal][d2Nal]-NH2)
- Ki [1]: 0.2 µM
- Kb [1]: 0.2 µM
- Kb [2]: > 3.16 µM
- EC50 [3]: > 100 µM
- EC50 [4]: > 100 µM
- Activity ([8]; filed as agonist): 55%
- EC50 [5]: > 100 µM

SMILES: CC(=O)N[C@H](Cc1ccc(I)cc1)C(=O)N[C@@H](CCCNC(=N)N)C(=O)N[C@H](Cc1ccc(I)cc1)C(=O)N[C@@H](CCCNC(=N)N)C(N)=O (Ac-[dPhe(4-I)]R[dPhe(4-I)]R-NH2)
- Ki [1]: 0.0032 µM
- Kb [1]: 0.00316 µM
- Ki [2]: 0.04 µM
- Kb [2]: 0.0398 µM
- EC50 [3]: > 100 µM
- EC50 [4]: > 100 µM
- EC50 [5]: > 100 µM
- EC50 [6]: 0.007 µM

SMILES: CC(=O)N[C@H](Cc1ccc(I)cc1)C(=O)N[C@@H](CCCNC(=N)N)C(=O)N[C@H](Cc1ccc(I)cc1)C(=O)N[C@H](CCCCN)C(N)=O (Ac-[dPhe(4-I)]R[dPhe(4-I)][dK]-NH2)
- Ki [1]: 0.0032 µM
- Kb [1]: 0.00316 µM
- Ki [2]: 0.032 µM
- Kb [2]: 0.0316 µM
- EC50 [3]: > 100 µM
- EC50 [4]: > 100 µM
- EC50 [5]: > 100 µM
- EC50 [6]: 0.035 µM

SMILES: CC(=O)N[C@H](Cc1ccc(I)cc1)C(=O)N[C@H](Cc1ccc2ccccc2c1)C(=O)N[C@@H](Cc1c[nH]c2ccccc12)C(=O)N[C@H](CCCCN)C(N)=O (Ac-[dPhe(4-I)][d2Nal]W[dK]-NH2)
- Ki [1]: 0.25 µM
- Kb [1]: 0.251 µM
- Ki [2]: 2 µM
- Kb [2]: 2 µM
- EC50 [3]: > 100 µM
- EC50 [4]: > 100 µM
- Activity ([8]; filed as agonist): 65%
- EC50 [5]: > 100 µM

SMILES: CC(=O)N[C@H](Cc1ccc(I)cc1)C(=O)N[C@H](Cc1ccc2ccccc2c1)C(=O)N[C@@H](Cc1ccc2ccccc2c1)C(=O)N[C@@H](CCCNC(=N)N)C(N)=O (Ac-[dPhe(4-I)][d2Nal][2Nal]R-NH2)
- Ki [1]: 1.6 µM
- Kb [1]: 1.58 µM
- Kb [2]: > 3.16 µM
- EC50 [3]: > 100 µM
- EC50 [4]: > 100 µM
- EC50 [5]: 0.8 µM

SMILES: CC(=O)N[C@H](Cc1ccc(I)cc1)C(=O)N[C@H](Cc1ccc2ccccc2c1)C(=O)N[C@H](Cc1ccc2ccccc2c1)C(=O)N[C@@H](CCCNC(=N)N)C(N)=O (Ac-[dPhe(4-I)][d2Nal][d2Nal]R-NH2)
- Kb [1]: > 3.16 µM
- Kb [2]: > 3.16 µM
- EC50 [3]: > 100 µM
- EC50 [4]: > 100 µM
- EC50 [5]: 0.23 µM
- EC50 [6]: > 100 µM

SMILES: CC(=O)N[C@H](Cc1ccc(I)cc1)C(=O)N[C@H](Cc1ccc2ccccc2c1)C(=O)N[C@H](Cc1ccc2ccccc2c1)C(=O)N[C@H](CCCCN)C(N)=O (Ac-[dPhe(4-I)][d2Nal][d2Nal][dK]-NH2)
- Kb [1]: 0.501 µM
- Kb [2]: > 3.16 µM
- EC50 [3]: > 100 µM
- EC50 [4]: > 100 µM
- EC50 [5]: > 100 µM

SMILES: CC(=O)N[C@H](Cc1ccc(I)cc1)C(=O)N[C@H](Cc1ccc2ccccc2c1)C(=O)N[C@H](Cc1ccc(I)cc1)C(=O)N[C@@H](CCCNC(=N)N)C(N)=O (Ac-[dPhe(4-I)][d2Nal][dPhe(4-I)]R-NH2)
- Kb [1]: > 3.16 µM
- Kb [2]: > 3.16 µM
- EC50 [3]: > 100 µM
- EC50 [4]: > 100 µM
- Activity ([8]; filed as agonist): 40%
